The test system of experiment [1] is P388 murine leukemia cell line. The experiment in a line: Identification of cytotoxic agents: P388 cell viability (ATP-Lite). Conditions: Mus musculus; P388 cells, 72 hours, intracellular ATP (ATP-Lite), concentration required to inhibit growth by 50%. In kind it is cell-based. The protocol: A P388 murine leukemia cell line was obtained from NCI, Frederick, Md. P388 cells were cultured in RPMI-1640 supplemented with 10% fetal bovine serum, 2 mM Glutamax, 1 mM sodium pyruvate, 0.1 mM non-essential amino acids and 10 mM HEPES. Cells were grown at 37° C. in a humidified 5% CO2 atmosphere. Exponentially growing P388 cells were plated at 5,000 cells/well in a 96-well flat-bottomed microtiter plate (Corning, Costar #3595). […] Cellular viability was determined 72 hours later by measuring intracellular ATP with ATP-Lite assay system. The effect of compounds on cell viability was calculated by comparing the ATP levels of cells exposed to test compound with those of cells exposed to DMSO. A semi-log plot of relative ATP levels versus compound concentration was used to calculate the compound concentration required to inhibit growth by 50% (IC50). Data was analyzed by Prism software (GraphPad; San Diego, Calif.) by fitting it to a sigmoidal dose response curve.

Experiment [2] concerns P388/ADR cell lines (overexpress multidrug resistance pump MDR-1). The experiment in a line: Multidrug resistant cell assay: P388/ADR cell viability (ATP-lite). In kind it is cell-based. The note with it: Mus musculus, P388/ADR cells overexpressing MDR-1 (Pgp-1), 72 hours. The text has this:
Cytotoxicity of compounds in multidrug resistant cells can be determined by administering compounds to cell lines that overexpress the multidrug resistance pump MDR-1 and determining the viability of the cell lines. P388/ADR cell lines are known to overexpress the multidrug resistance pump MDR-1 (also known as P-glycoprotein-1; Pgp-1).
P388/ADR cell lines are obtained from American Type Culture Collection (Manassas, Va.) and maintained in RPMI-1640 media supplemented with 10% FCS, 10 units/ml penicillin and streptomycin, 2 mM Glutamax and 1 mM sodium pyruvate (Invitrogen Corporation, Carlsbad, Calif.). For compound testing, cells are plated in 96 well dishes at a concentration of 1.5×10^4 cells/well. Cells are allowed to adhere to the plate overnight and then incubated with compounds at final concentrations ranging from 0.13 nM to 10 uM for 72 hours. Cell viability is then assessed using the ATP-lite reagent (Perkin Elmer, Foster City, Calif.). Plates are read on a Wallac Topcount luminescence reader (Perkin Elmer, Foster City, Calif.) and the results graphed in Prism software (Graphpad Software, Inc., San Diego, Calif.). Non-linear regression with variable slope analysis is performed to obtain IC50 concentration values.

The term IC50 denotes the point on the concentration scale where inhibition reaches its midpoint. The low end stands for greater potency, the high end for weaker potency.

In the case of `COc1ccc(N(C)c2ccnc(Cl)n2)cc1` [Example 1, (2-Chloro-pyrimidin-4-yl)-(4-methoxyphenyl)-methyl amine], the values for the IC50 in experiment [1] and in experiment [2] were 0.28 µM and 0.48 µM, respectively.

On to `COC(=O)c1cc(N(C)c2ccc(OC)cc2)nc(Cl)n1` [Example 2, Methyl 2-chloro-6-[(4-methoxyphenyl)(methyl)amino]pyrimidine-4-carboxylate], for which 9 µM corresponded to half-maximal inhibition in experiment [1] (IC50).

In the case of `CCOC(=O)c1cnc(SC)nc1N(C)c1ccc(OC)cc1` [Example 3, Ethyl 4-[(4-methoxyphenyl)(methyl)amino]-2-(methylthio)pyrimidine-5-carboxylate], the IC50 in experiment [1] stood at 0.054 µM; in experiment [2], 0.078 µM.

Turning to `COc1ccc(N(C)c2cc(C)nc(N(C)C)n2)cc1` [Example 4, N^4-(4-Methoxyphenyl)-N^2,N^2,N^4,6-tetramethylpyrimidine-2,4-diamine], the IC50 in experiment [1] stood at 1.06 µM; in experiment [2], 1.1 µM.

Take `COc1ccc(N(C)c2ccnc(N(C)C)n2)cc1` [Example 5, N^4-(4-Methoxyphenyl)-N^2,N^2,N^4-trimethylpyrimidine-2,4-diamine]: the IC50 in experiment [1] was determined as 7.9 µM; in experiment [2], 6.2 µM.

Consider `COc1ccc(N(C)c2ccnc(C#N)n2)cc1` [Example 6, 4-[(4-Methoxyphenyl)(methyl)amino]pyrimidine-2-carbonitrile], for which the IC50 in experiment [1] was 6.8 µM.

On to `COc1ccc(N(C)c2cc(C)nc(C#N)n2)cc1` [Example 7, 4-[(4-Methoxyphenyl)(methyl)amino]-6-methylpyrimidine-2-carbonitrile], for which the figures for the IC50 in experiment [1] and in experiment [2] were 2.5 µM and 3.9 µM, respectively.

Take `COc1ccc(N(C)c2cc(Cl)nc(N)n2)cc1` [Example 8, 6-Chloro-N^4-(4-methoxyphenyl)-N^4-methylpyrimidine-2,4-diamine]: the IC50 in experiment [1] stood at 1.9 µM; in experiment [2], 2.4 µM.

`COc1ccc(N(C)c2ccnc(CN)n2)cc1` [Example 9, 2-(Aminomethyl)-N-(4-methoxyphenyl)-N-methylpyrimidin-4-amine]: the IC50 came to 1.9 µM in experiment [1] and 3.1 µM in experiment [2].

Take `COc1ccc(N(C)c2cc(-c3ccccc3)nc(C)n2)cc1` [Example 10]: the IC50 is 1.6 µM in experiment [1] and 0.8 µM in experiment [2].

Turning to `COc1ccc(N(C)c2cc(C)nc(C)n2)cc1` [Example 11, (2,6-dimethyl-pyrimidin-4-yl)-(4-methoxyphenyl)-methylamine], the results for the IC50 in experiment [1] and in experiment [2] were 0.31 µM and 0.4 µM, respectively.

Take `COc1ccc(N(C)c2nc(C)ncc2NS(=O)(=O)c2ccc(OC)cc2)cc1` [Example 12, 4-Methoxy-N-{4-[(4-methoxyphenyl)-methylamino]-2-methyl-pyrimidin-5-yl)-benzenesulfonamide]: the IC50 was 0.057 µM in experiment [1] and 0.062 µM in experiment [2].

As to `COc1ccc(S(=O)(=O)Nc2cnc(C)nc2N(C)c2ccc(O)cc2)cc1` [Example 13, N-{4-[(4-hydroxyphenyl)-methylamino]-2-methyl-pyrimidin-5-yl)-4-methyoxy-benzenesulfonamide], the IC50 was 1.4 µM in experiment [1] and 7.4 µM in experiment [2].

The values above are taken from patent publication US20090280133A1, “PHARMACEUTICAL COMPOUNDS AS INHIBITORS OF CELL PROLIFERATION AND THE USE THEREOF” (Myriad Genetics, Incorporated, priority 2006, published 2009).
